Results from patent publication US8022056B2, “Compositions and methods for the treatment of cancer” (Tautatis, Inc, priority 2006, dated 2011).

How the values were obtained:
CDK1 = CDK1 (Homo sapiens, UniProt P06493); assay: Kinase inhibition under standard conditions, CDK1; type: biochemical
GSK3 = assay: Kinase inhibition under standard conditions, GSK3; type: biochemical
[1] = system: HT29 colon cancer cell line; assay: Long-term growth inhibition, crystal violet staining; type: cell-based, human; conditions: 10 nM
Description: For proliferation assays tumor cell suspensions (100 μl/well) were seeded into 96-well flat bottomed microtitration plates at a density of ca. 15 cells/microscopic field (magnification 320×). After 2-3 days the culture medium was removed by suction and replaced by fresh medium (200 μl/well) containing varying concentrations of the compound of the formula 1 or vehicle (0.5% DMSO). Compound 1 was added as […] concentrated feed solutions. On every plate 16 wells served as controls and 16 wells were used per concentration of 1. After various times of incubation the cells were fixed with glutardialdehyde and stored in a refrigerator. At the end of the assay all plates were processed simultaneously (staining with 0.02% aqueous crystal violet solution (100 μl/well). Excess dye was removed by rinsing the trays with water for 20 min. The stain bound by the cells was redissolved in 70% ethanol (180 μl/well) while shaking the microplates for about 3 hours. Absorbance (proportional to cell mass) was measured at 578 nm using a BIOTEK 309 Autoreader. The results (mean values±standard deviation) were plotted as growth curves.
The HT29 human colon cancer cell line (obtained from ATCC, Rockville, USA) was cultured as above. Treatment with the compound of the formula 1 and analysis of growth inhibition was performed analogous to Example 3.

NCI-H23 xenograft = assay: Mouse xenograft model NCI-H23; type: in vivo; conditions: Lung, Ras/p53; oral twice daily dosing
Description: (§1) The efficacy of the compound of the formula 1 was confirmed in mouse tumor xenograft models, employing the NMRI(nu/nu) strain of mice. For example, cells from the human tumor cell lines MDA-MB-231, U373, and HT29 were pre-incubated subcutaneously in several nude mice to select for the most robustly growing cell population. After having grown to a sufficient size after 2-3 weeks, a piece of about 2 mm^3 volume of the most suitable tumor was transplanted subcutaneously into the region of the thoracic mammary fat pads, an area ensuring a high degree of vascularization of the grafted tissue. […] During the course of the treatment, the weight of the animals and the size of the transplanted tumor was monitored three times a week. […] These doses are best determined separately for each individual mouse strain employed.
(§2) To establish a solid tumour 3×10^6 tumor cells suspended in 100 μl of serum free medium (RPMI) were inoculated subcutaneously into the region of the thoracic mammary fat pads of 5 Male NMRI(nu/nu) mice of 8-10 weeks of age. […] During the course of the treatment body weight changes and tumor growth were recorded three times a week. Growth curves were plotted together with standard deviations and the significance of differences was determined using an unpaired t-test in FIG. 11. […]

U251 xenograft = assay: Mouse xenograft model U251; type: in vivo; conditions: Brain, CDKN2A/p53/PTEN; oral twice daily dosing
Description: as §1, §2

SK-MEL-5 xenograft = assay: Mouse xenograft model SK-MEL-5; type: in vivo; conditions: Melanoma, Raf/CDKN2A; oral twice daily dosing
Description: as §1, §2

T-47D xenograft = assay: Mouse xenograft model T-47D; type: in vivo; conditions: Breast, p53/PI3K; oral twice daily dosing
Description: as §1, §2

[2] = molecular target: T1, ABC-B1 (glycoprotein gp170) (Homo sapiens, UniProt P08183); assay: Competition with MDR-driven efflux of calcein-AM in Kb-V1 cells (FACS); type: cell-based
T1 construct: Kb-V1 cells expressing high levels of gp170; endogenous in cells; host or cells: Kb-V1 cells
From the text: (§3) FIG. 6 compares the recognition of compound 1 and of the compound 6 by two frequently involved multi-drug resistance proteins ABC-B1 (glycoprotein gp170) (A), and ABC-G2 (breast cancer resistance protein BCRP) (B). Measurements were based on competition with the MDR-driven efflux of calcein-AM in Kb-V1 cells expressing high levels of gp170, or competition with the efflux of mitoxandrone in MCF-7 cells by the respective compounds within their effective concentration range. Uptake of fluorescent reporter compounds by competition with 1 or 6 was assessed by FACS as described in Mueller et al., Cancer Chemother. Pharmacol. 59, 157-164 (2007).

[3] = molecular target: T2, ABC-G2 (breast cancer resistance protein BCRP) (Homo sapiens, UniProt Q9UNQ0); assay: Competition with efflux of mitoxandrone in MCF-7 cells (FACS); type: cell-based
T2 construct: endogenous in cells; host or cells: MCF-7 cells
From the text: as §3

T1 sequence (P08183 whole entry): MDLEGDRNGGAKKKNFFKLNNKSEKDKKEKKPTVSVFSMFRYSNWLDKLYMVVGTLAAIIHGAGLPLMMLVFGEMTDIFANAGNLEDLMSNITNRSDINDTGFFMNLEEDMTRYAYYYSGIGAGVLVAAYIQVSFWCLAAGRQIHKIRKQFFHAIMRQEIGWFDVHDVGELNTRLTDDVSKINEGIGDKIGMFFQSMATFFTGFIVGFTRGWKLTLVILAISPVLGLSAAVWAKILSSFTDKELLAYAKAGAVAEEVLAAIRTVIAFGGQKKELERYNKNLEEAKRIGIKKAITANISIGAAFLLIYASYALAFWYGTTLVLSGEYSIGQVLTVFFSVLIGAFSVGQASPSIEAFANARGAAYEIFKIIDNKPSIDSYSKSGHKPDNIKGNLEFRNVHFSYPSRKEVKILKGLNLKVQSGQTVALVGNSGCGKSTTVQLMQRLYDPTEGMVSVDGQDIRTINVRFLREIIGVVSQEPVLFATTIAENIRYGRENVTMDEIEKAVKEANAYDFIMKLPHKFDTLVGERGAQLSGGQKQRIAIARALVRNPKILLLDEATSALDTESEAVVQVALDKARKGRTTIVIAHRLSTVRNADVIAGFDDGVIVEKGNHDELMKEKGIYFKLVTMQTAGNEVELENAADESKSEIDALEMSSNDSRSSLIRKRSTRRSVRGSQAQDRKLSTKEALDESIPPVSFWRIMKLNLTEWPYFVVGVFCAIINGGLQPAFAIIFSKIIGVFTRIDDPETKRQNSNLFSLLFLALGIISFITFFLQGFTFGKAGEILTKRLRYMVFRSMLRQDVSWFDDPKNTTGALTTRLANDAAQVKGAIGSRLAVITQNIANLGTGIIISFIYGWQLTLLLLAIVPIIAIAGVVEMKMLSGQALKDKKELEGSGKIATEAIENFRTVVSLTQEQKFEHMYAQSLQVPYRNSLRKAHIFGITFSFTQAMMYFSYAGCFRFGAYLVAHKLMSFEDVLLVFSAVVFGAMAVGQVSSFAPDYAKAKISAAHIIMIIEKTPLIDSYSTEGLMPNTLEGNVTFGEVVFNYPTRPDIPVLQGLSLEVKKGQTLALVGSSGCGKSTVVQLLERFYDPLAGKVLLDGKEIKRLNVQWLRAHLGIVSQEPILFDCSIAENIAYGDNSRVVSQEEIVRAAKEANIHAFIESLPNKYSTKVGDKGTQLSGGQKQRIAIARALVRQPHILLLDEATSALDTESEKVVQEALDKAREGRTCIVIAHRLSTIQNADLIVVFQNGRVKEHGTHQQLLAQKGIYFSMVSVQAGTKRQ
T2 sequence (Q9UNQ0 whole entry): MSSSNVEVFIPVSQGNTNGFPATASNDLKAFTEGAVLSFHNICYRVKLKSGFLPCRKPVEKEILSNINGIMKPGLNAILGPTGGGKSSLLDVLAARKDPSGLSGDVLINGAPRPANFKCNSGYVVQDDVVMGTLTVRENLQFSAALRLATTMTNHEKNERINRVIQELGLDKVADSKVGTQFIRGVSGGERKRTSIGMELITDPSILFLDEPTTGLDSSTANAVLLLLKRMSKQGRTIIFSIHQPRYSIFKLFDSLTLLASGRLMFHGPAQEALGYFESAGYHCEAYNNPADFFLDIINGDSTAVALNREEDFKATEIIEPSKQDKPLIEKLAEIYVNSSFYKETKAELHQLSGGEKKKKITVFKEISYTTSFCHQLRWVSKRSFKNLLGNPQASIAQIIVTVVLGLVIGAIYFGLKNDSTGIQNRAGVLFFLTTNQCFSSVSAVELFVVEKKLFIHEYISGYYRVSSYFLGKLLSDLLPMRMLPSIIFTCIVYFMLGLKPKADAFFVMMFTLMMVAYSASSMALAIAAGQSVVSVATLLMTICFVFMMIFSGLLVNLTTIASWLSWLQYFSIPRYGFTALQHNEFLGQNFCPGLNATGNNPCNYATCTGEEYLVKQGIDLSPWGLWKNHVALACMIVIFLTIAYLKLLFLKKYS
Sequence of CDK1 (P06493 whole entry, species assumed): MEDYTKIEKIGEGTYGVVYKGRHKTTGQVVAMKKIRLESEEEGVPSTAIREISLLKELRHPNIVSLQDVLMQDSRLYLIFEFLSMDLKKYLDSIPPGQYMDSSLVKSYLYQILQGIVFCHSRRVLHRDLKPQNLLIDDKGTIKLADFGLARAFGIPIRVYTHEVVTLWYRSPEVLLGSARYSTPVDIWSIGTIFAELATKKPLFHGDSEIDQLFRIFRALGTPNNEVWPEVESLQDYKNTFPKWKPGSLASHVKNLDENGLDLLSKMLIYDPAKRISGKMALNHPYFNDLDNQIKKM
Sequence of CDK1 (P14635 whole entry partner, species assumed): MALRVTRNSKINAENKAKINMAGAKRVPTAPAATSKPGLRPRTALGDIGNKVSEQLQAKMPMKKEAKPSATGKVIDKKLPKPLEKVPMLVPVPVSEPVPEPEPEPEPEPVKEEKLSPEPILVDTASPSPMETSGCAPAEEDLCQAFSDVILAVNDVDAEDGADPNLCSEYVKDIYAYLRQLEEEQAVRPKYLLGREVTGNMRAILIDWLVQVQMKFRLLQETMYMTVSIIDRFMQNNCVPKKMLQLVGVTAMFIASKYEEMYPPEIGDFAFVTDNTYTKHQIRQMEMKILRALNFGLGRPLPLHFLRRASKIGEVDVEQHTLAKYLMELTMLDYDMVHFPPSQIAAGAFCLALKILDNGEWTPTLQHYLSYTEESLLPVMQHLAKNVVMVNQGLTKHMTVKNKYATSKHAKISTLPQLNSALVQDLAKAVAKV

`CNC(=O)[C@@]1(N)C[C@H]2O[C@]1(C)n1c3ccccc3c3c4c(c5c6ccccc6n2c5c31)C(=O)NC4` [Compound 1] was tested, and the IC50 (CDK1) was 0.043 µM, the IC50 (GSK3) was 1.23 µM and the “proliferation of HT29 cells” value [1] was “sufficient to block the proliferation”. For the same compound, the “Mean % Inhibition” value (NCI-H23 xenograft) was 92%, the “N tumors with no/neg. growth” value (NCI-H23 xenograft) was 5 of 10 and the “Mean % Inhibition” value (U251 xenograft) was 74%. For the same compound, the “N tumors with no/neg. growth” value (U251 xenograft) was 3 of 11, the “Mean % Inhibition” value (SK-MEL-5 xenograft) was 122% and the “N tumors with no/neg. growth” value (SK-MEL-5 xenograft) was 7 of 10. For the same compound, the “Mean % Inhibition” value (T-47D xenograft) was 81%, the “N tumors with no/neg. growth” value (T-47D xenograft) was 4 of 10 and the “separation of anti-proliferative potency range from uptake concentration for efflux transporter, versus compound 6” value [2] was “more clearly separated”. The “separation of anti-proliferative potency range from uptake concentration for efflux transporter, versus compound 6” value [3] was “more clearly separated”.
